Assay results published in article PMC12080252, “Daphnia magna as an Alternative Model for (Simultaneous) Bioaccumulation and Chronic Toxicity Assessment—Controlled Exposure Study Indicates High Hazard of Heterocyclic PAHs” (Environmental Science & Technology, 2025).
Where “and” joins values, the source holds several entries; their conditions need not be identical. Equal values may be shown once.

Tests used:
[1] = Chronic reproduction toxicity test (OECD 211) with passive dosing; format: in vivo, Daphnia magna; set-up: % inhibition, avr. of vessels: concentration or dose not given beside the values; conditions: Daphnia magna, in vivo, other: waterborne exposure by passive dosing from PDMS disks, 21-day test
Method: (§1) Chronic toxicity tests with D. magna were performed according to the OECD guideline 211^2 using the passive dosing method. Two days before the tests, the exposure solution was predosed by shaking 10 PDMS disks loaded with the test substance in 1 L of medium for 48 h. Each test vessel (250 mL) was first flushed with the dosed solution to equilibrate the vessel walls, then filled with 100 mL of test solution, one PDMS disk, and one juvenile D. magna (<24 h old). The tests were conducted in loosely closed bottles to allow for adequate gas exchange and limit evaporation. The exposure medium was changed three times per week, and the animals were fed D. subspicatus daily (0.2 mg C/Daphnia/day). The number of offspring per adult and behavioral or physiological effects (e.g., size, movement, unhatched eggs) were recorded daily (except weekends). Dissolved oxygen, pH and temperature were also measured each week.
(§2) Tests were performed under static conditions (20 °C, 16:8 h light/dark cycle, 1 klux). Each compound was tested in 10 replicates for controls and limit tests (a single high concentration exposure to screen for significant toxic effects) and with 6 or 10 replicates for concentration–response tests. Reuse of silicone disks was included in some experiments (Table S3). Reproductive inhibition was assessed by counting offspring over 21 days. The number of offspring per mother in treatment groups was compared to controls, and the percent inhibition per replicate was used to generate concentration–response curves. A minimum of five concentrations per compound were tested to determine EC10, EC20, and EC50 values. For each test, three sets of polymers were rotated between loading, dosing, and exposure stages (Figure S2). Initial (before animal and food addition) and final (after 2–3 days of exposure, just before the medium change) water concentrations (CW) were monitored, with the latter collected after centrifugation to remove biomass (e.g., algae, carapaces, or feces).
(§3) All data are presented as average ± standard deviation. Student’s t test was used to analyze significance (p-value >0.05 considered insignificant). Concentration–response curve parameters (effective concentrations and confidence limits) and plots were generated using GraphPad Prism software (V6.01, GraphPad Software, La Jolla, CA, USA). The exposure concentrations were log10 transformed before fitting. Then a four parameters logistic model with variable slope was used to obtain EC10, EC20 and EC50 (see section S5 in SI file for details). Effective chemical activities (EA50) for chronic toxicity were calculated as follows: [drawing 1] 1 […]
(§4) S5. Concentration-response curve (CRC) fitting procedure
(§5) GraphPad Prism version 9.5.1 was used to fit CRC and obtain EC10, EC20, EC50 values and their confidence intervals. The exposure concentrations were log10 transformed before fitting. Then a four parameters logistic model with variable slope was used that describes the response as a function of following four parameters: minimum response (the Bottom), maximum response (the Top), the concentration required to cause a response half-way between the minimum and maximum (the EC50) and the slope of the curve […]
(§6) concentration. The Top was constrained to 100, the Bottom was constrained to 0, the HillSlope was not […]
(§7) !"# %& = !"# %&* − , × !"# 3 * 4
(§8) (, + ,((!"# %&'(<=)×-.!!/!"01)
(§9) Figure S7 Concentration-response curves of four NSO-PAHs based on reproductive inhibition during 21-day chronic toxicity tests with D. magna.
(§10) (1 picture or pasted object on this page, not shown here)

[2] = tested on: Daphnia magna; experiment: as above; format: in vivo; set-up: % inhibition, avr. of vessels: concentration or dose not given beside the values; conditions: for EC10: 21-day reproduction inhibition; for #offspring per mother, Total: single vessels (replicates); for #dead offspring per mother, Total: single vessels; for wet weight of parent daphnids, change relative to control: end of 21-d exposure
Method: as §1, §2, §3, §4, §5, §6, §7, §8, §9, §10

[3] = tested on: D. magna; experiment: PNEC and risk quotient estimation; set-up: species or system Daphnia magna; conditions: environmental concentration of surrogate (CRB, DBF, DBT) / PNEC
Source text: To ensure a precautionary approach, an AF of 100 was applied, which accounts for interspecies variability and uncertainties in extrapolating laboratory findings to real-world conditions.
Environmental concentration (EC) data are obtained from A CRB, B DBF, and C DBT by choosing the highest
concentration that remains below the solubility limit of the respective NSO-PAH, as described in Reference 24.

[4] = 21-day reproduction test, sheet Test 4-BNF, last treatment block, single replicate vessels 1-6
[5] = BNF avr. medium concentration 0.77 µg/L, 21 days
[6] = BNF avr. medium concentration 2.99 µg/L, 21 days

SMILES: c1ccc2c(c1)ccc1oc3ccccc3c12 [BNF, benzo[b]naphtho[1,2-d]furan]
- mortality at 21 days, 0.3 µg/L ([1]; 0.3 µg/L (Fig. S8), read-out: % offspring mortality of total offspring): 0.3%
- mortality at 21 days, 0.8 µg/L ([1]; 0.8 µg/L (Fig. S8), read-out: % offspring mortality of total offspring): 0%
- mortality at 21 days, 1.5 µg/L ([1]; 1.5 µg/L (Fig. S8), read-out: % offspring mortality of total offspring): 0.4%
- mortality at 21 days, 3 µg/L ([1]; 3.0 µg/L (Fig. S8), read-out: % offspring mortality of total offspring): 0%
- mortality at 21 days, 4.4 µg/L ([1]; 4.4 µg/L (Fig. S8), read-out: % offspring mortality of total offspring): 0.7%
- mortality at 21 days ([1]; at higher exposure levels, read-out: offspring mortality): < 1%
- EC10 ([2]; 97.5-2.5% confidence interval in brackets): 0.91 (0.35-1.67) μg L^-1
- EC10 ([2]; confidence interval in brackets): 4.17 (1.60-7.63) nmol L^-1
- % inhibition, avr. of vessels ([2]; 21-day reproduction test, sheet Test 4-BNF, last treatment block, average of 6 vessels): 35.3%
- % inhibition (of reproduction, per vessel) [2, 4]: 17.3% and 34.4% and 37.2% and 35.8% and 67.2% and 20.1%
- Total #dead offspring per mother (per vessel) [2, 4]: 1 and 0
- growth of parent D. magna (wet weight) ([2]; 21-day test, p-value <0.05): significantly inhibited D. magna growth
- %offspring mortality ([2]; 21 days): 0.73%
- #average live offspring ([2]; 21 days, mean of 6 vessels, sheet Test 4-BNF, last treatment block): 45
- LOEC (lowest observed effect concentration, reproduction inhibition) ([2]; 21 days, p-value <0.05 vs controls): 3.0 μg L^–1
- #total live offspring ([2]; 21 days, sum of 6 vessels, sheet Test 4-BNF, last treatment block): 272
- #offspring per mother, Total ([2]; BNF avr. medium concentration 0.35 µg/L (methanol for dosing 0.063 g/L), 21 days): 77 and 63 and 72 and 59 and 68
- %offspring mortality ([2]; BNF avr. medium concentration 0.35 µg/L, 21 days): 0.25%
- % inhibition, avr. ([2]; BNF avr. medium concentration 0.35 µg/L, 21 days, average of vessels): 4.4%
- #average live offspring ([2]; BNF avr. medium concentration 0.35 µg/L, 21 days, per mother): 67
- #total live offspring ([2]; BNF avr. medium concentration 0.35 µg/L, 21 days, sum of all vessels): 402
- #offspring per mother, Total ([2]; BNF avr. medium concentration 0.77 µg/L (methanol for dosing 0.125 g/L), 21 days): 72 and 65 and 81 and 60 and 59
- %offspring mortality [2, 5]: 0.00%
- % inhibition, avr. ([2]; BNF avr. medium concentration 0.77 µg/L, 21 days, average of vessels): 2.8%
- #average live offspring ([2]; BNF avr. medium concentration 0.77 µg/L, 21 days, per mother): 68
- #dead offspring per mother, Total [2, 5]: 0
- #total live offspring ([2]; BNF avr. medium concentration 0.77 µg/L, 21 days, sum of all vessels): 409
- #offspring per mother, Total ([2]; BNF avr. medium concentration 1.55 µg/L (methanol for dosing 0.25 g/L), 21 days): 68 and 44 and 67 and 57 and 40
- %offspring mortality ([2]; BNF avr. medium concentration 1.55 µg/L, 21 days): 0.36%
- % inhibition, avr. ([2]; BNF avr. medium concentration 1.55 µg/L, 21 days, average of surviving vessels): 21.3%
- #average live offspring ([2]; BNF avr. medium concentration 1.55 µg/L, 21 days, per mother): 55
- #total live offspring ([2]; BNF avr. medium concentration 1.55 µg/L, 21 days, sum of surviving vessels): 276
- state of the mother animal (parental mortality) ([2]; BNF avr. medium concentration 1.55 µg/L, vessel 5, day 16): dead
- #offspring per mother, Total ([2]; BNF avr. medium concentration 2.99 µg/L (methanol for dosing 0.5 g/L), 21 days): 46 and 49 and 38 and 47 and 60 and 51
- %offspring mortality [2, 6]: 0.00%
- % inhibition, avr. ([2]; BNF avr. medium concentration 2.99 µg/L, 21 days, average of vessels): 30.8%
- #average live offspring ([2]; BNF avr. medium concentration 2.99 µg/L, 21 days, per mother): 49
- #dead offspring per mother, Total [2, 6]: 0
- #total live offspring ([2]; BNF avr. medium concentration 2.99 µg/L, 21 days, sum of all vessels): 291
- EA50 (effective chemical activity) ([2]; EC50/subcooled liquid solubility, eq 1): 0.002 unitless
- Classification according to REACH Annex XIII ([2]; chronic EC10 < 10 μg L^–1): toxic to aquatic life
- CTLBB (critical target lipid body burden) ([2]; derived from chronic EC10 using eq 3): 1.7 μmol g^-1 octanol
- wet weight of parent daphnids, change relative to control ([2]; 0.3 µg/L (Fig. S9)): -11%
- wet weight of parent daphnids, change relative to control ([2]; 0.8 µg/L (Fig. S9)): -23%
- wet weight of parent daphnids, change relative to control ([2]; 1.5 µg/L (Fig. S9)): -12%
- wet weight of parent daphnids, change relative to control ([2]; 3.0 µg/L (Fig. S9)): -33%
- wet weight of parent daphnids, change relative to control ([2]; 4.4 µg/L (Fig. S9)): -38%
- Parent animal mortality ([2]; vessel 5, day 16, sheet Test 4-BNF, last treatment block): dead (reported as exposure related)
- RQ (EC/PNEC) [3]: 21111
